Reference: patent US6056958A, “Method of treatment of arterial and venous thromboembolic disorders” (Dupont Pharmaceuticals, priority 1997, dated 2000)
Non-standard residues stand in square brackets, D forms with d. Residues, ends and D or L forms follow the SMILES beside them. 3Amb = NCc1cccc(C(=O)O)c1

Assays:
[1] = tested on: Platelet Aggregation; assay: In Vivo Platelet Aggregation Inhibition in Dog; conditions: IV
[2] = molecular target: T1, αv /β3 receptor (Homo sapiens, UniProt P05106+P06756); assay: αv/β3-Biotinylated Vitronectin Binding Assay; conditions: for IC50: inhibition of vitronectin binding to purified αv/β3; for Relative Binding Affinity for αv /β3 Relative to GPIIb/IIIa: ratio of IC50 values (GPIIb/IIIa over αv/β3)
T1 construct: The αv /β3 receptor was isolated from human placental extracts prepared using octylglucoside; from tissue
T1 sequence (P06756 31-889 limits assumed): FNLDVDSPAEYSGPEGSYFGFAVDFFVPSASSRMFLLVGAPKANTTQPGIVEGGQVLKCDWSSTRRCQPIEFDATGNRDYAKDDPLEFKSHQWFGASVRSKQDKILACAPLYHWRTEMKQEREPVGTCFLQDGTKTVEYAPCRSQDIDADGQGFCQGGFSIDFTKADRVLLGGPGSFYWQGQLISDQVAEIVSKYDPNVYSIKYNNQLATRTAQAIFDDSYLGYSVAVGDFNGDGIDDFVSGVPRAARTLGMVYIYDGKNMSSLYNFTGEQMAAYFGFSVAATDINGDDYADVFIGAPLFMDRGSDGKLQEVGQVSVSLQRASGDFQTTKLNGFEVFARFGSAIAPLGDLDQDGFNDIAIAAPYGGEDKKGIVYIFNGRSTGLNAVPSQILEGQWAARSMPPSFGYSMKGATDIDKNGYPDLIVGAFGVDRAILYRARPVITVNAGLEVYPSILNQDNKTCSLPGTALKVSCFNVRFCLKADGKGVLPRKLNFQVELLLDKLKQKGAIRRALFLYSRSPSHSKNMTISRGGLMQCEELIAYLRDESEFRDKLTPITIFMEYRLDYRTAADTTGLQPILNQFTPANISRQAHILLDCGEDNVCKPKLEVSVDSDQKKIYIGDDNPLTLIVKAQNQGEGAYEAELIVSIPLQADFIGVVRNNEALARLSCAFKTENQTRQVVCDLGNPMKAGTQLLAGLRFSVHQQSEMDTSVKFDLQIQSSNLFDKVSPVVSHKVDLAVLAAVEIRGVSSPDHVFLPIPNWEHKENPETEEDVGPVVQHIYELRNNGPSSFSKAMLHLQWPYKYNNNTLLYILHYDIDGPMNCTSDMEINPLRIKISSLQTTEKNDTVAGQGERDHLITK
T1 sequence (P06756 891-1048 partner limits assumed): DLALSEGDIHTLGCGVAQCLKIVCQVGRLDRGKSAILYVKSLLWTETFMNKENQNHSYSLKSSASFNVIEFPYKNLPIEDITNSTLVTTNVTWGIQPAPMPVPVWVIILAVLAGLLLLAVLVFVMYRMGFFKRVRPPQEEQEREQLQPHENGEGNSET
T1 sequence (P05106 27-788): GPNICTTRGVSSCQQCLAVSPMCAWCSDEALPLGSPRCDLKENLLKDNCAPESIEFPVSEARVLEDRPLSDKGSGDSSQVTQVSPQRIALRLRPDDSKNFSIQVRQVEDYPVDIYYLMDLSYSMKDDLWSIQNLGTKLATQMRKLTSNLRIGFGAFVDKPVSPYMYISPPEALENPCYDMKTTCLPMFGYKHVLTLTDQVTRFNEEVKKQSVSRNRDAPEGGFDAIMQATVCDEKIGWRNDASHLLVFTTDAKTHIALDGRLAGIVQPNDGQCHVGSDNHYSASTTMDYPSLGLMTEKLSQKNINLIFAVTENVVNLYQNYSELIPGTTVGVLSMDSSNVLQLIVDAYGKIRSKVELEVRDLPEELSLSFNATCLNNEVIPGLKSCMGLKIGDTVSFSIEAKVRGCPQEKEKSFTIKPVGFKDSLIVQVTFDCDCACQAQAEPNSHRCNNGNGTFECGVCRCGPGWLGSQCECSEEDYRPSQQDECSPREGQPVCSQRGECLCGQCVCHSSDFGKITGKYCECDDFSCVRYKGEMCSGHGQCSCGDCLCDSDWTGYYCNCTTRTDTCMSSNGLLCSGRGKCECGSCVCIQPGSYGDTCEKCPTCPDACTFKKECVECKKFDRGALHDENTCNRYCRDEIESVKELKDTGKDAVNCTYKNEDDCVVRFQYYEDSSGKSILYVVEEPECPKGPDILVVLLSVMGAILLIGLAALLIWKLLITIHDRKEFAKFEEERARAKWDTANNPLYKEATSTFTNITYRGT
From the text: Compounds may be tested for their ability to block binding of vitronectin to the αv /β3 receptor and to block the binding of fibrinogen to GPIIb/IIIa receptor in the αv /β3 -Biotinylated Vitronectin Binding Assay and GPIIb/IIIa Receptor-Biotinylated Fibrinogen Binding Assay described below.
αv /β3 -Biotinylated Vitronectin Binding Assay
The αv /β3 receptor was isolated from human placental extracts prepared using octylglucoside. The extract was passed over an anti-αv /β3 monoclonal antibody (LM609) affinity column (prepared using LM609 and Affigel 10). The column was subsequently washed extensively at pH 7 and pH 4.5 followed by elution at pH 3. The resulting sample was concentrated by wheat germ agglutinin chromatography to provide a αv /β3 -containing sample which gave two bands on SDS-PAGE which were confirmed as αv /β3 by western blotting.
The affinity purified αv /β3 protein as described above was diluted at different levels and plated to 96 well plates (about 15 ng of αv /β3 protein per well). ELISA detection of αv /β3 -bound biotinylated vitronectin was performed as described below using fixed concentration of biotinylated vitronectin (approximately 80 nM/well). This αv /β3 receptor preparation contains the αv /β3 with no detectable levels of αv /β5 according to the gel and according to effects of blocking antibodies for the αv /β3 or αv /β5 in the ELISA.
A submaximal concentration of biotinylated vitronectin was selected based on concentration response curves with fixed αv /β3 receptor concentration and variable concentrations of biotinylated vitronectin.
The purified αv /β3 receptor is diluted with coating buffer (20 mM Tris HCl, 150 mM NaCl, 2.0 mM CaCl2, 1.0 mM MgCl2.6H2 O, 1.0 mM MnCl2.4H2 O) and coated (100 μL/well) on Costar (3590) high capacity 96-well plates overnight at 4° C. The coating solution is discarded and the plates washed once with blocking/binding buffer (B/B buffer: 50 mM Tris HCl, 100 mM NaCl, 2.0 mM CaCl2, 1.0 mM MgCl2.6H2 O, 1.0 mM MnCl2.4H2 O). The plate-immobilized αv /β3 receptor is then blocked (200 μl/well) with 3.5% BSA in B/B buffer for 2 hours at room temperature. After washing once with 1.0% BSA in B/B buffer, biotinylated vitronectin (100 μL) and either test compound (inhibitor) (11 μL) or B/B buffer w/1.0% BSA (11 μL) is added to each well. The plates are incubated 2 hours at room temperature. The plates are washed twice with B/B buffer and incubated 1 hour at room temperature with anti-biotin alkaline phosphatase (100 μL/well) in B/B buffer containing 1.0% BSA. The plates are washed twice with B/B buffer and alkaline phosphatase substrate (100 μL) is added. Color is developed at room temperature. Color development is stopped by addition of 2N NaOH (25 μL/well) and absorbance is read at 405 nm.
The inhibitory binding constant (Ki) of test agents 30 may be calculated under this assay system using Michaelis-Menten analysis. The IC50 is the concentration of test substance needed to block 50% of the vitronectin binding to the αv /β3 receptor. The IC50 for the inhibition of binding of vitronectin to the αv /β3 receptor was determined based on time averaged values for the inhibition of vitronectin binding. Thus, the inhibition of vitronectin binding for each concentration of test compound was measured every 30 seconds over a 2 hour period and the average value of inhibition of vitronectin binding over such 2 hour period was used for the determination of the IC50.

[3] = tested on: Platelet Aggregation; assay: Platelet Aggregation Assay (in vitro, ADP-induced, platelet-rich plasma); assay type: cell-based, mongrel dogs or human
Experimental: Platelet Aggregation Assay
Venous blood was obtained from anesthetized mongrel dogs or from healthy human donors who were drug-free and aspirin-free for at least two weeks prior to blood collection. Blood was collected into citrated Vacutainer tubes. The blood was centrifuged for 15 minutes at 150× g (850 RPM in a Sorvall RT6000 Tabletop Centrifuge with H-1000 B rotor) at room temperature, and platelet-rich plasma (PRP) was removed. The remaining blood was centrifuged for 15 minutes at 1500× g ([…]) at room temperature, and platelet-poor plasma (PPP) was removed. Samples were assayed on an aggregometer (PAP-4 Platelet Aggregation Profiler), using PPP as the blank (100% transmittance). 200 μL of PRP (5×10^8 platelets/mL) were added to each micro test tube, and transmittance was set to 0%. 20 μl of ADP (10 μM) was added to each tube, and the aggregation profiles were plotted (% transmittance versus time). Test agent (20 μL) was added at different concentrations prior to the addition of the platelet agonist. Results are expressed as % inhibition of agonist-induced platelet aggregation.

| Compound | Platelet Aggregation Inhibition (%) ([1]; 1 mg/kg) | Platelet Aggregation Inhibition (%) ([1]; 3 mg/kg) | Platelet Aggregation Inhibition (%) ([1]; 10 mg/kg) | IC50 [2] | Relative Binding Affinity for αv /β3 Relative to GPIIb/IIIa [2] | IC50 [3] |
| --- | --- | --- | --- | --- | --- | --- |
| C[C@@H]1NC(=O)c2cccc(c2)CNC(=O)[C@H](CC(=O)O)NC(=O)CNC(=O)[C@H](CCCNC(=N)N)NC1=O [Compound A, cyclo-(Ala-Arg-Gly-Asp-Mamb)] (cyclo(RGD[3Amb]A)) | 0-10% | 10-20% | 30-50% | 0.0038 µM | 107 | 18 µM |
| N=C(N)NCCC[C@@H]1NC(=O)[C@@H]2CCCN2C(=O)c2cccc(c2)CNC(=O)[C@H](CC(=O)O)NC(=O)CNC1=O [Compound B, cyclo-(Pro-Arg-Gly-Asp-Mamb)] (cyclo(RGD[3Amb]P)) | 0-10% | 0-10% | 10-20% | 0.0007 µM | 2171 | 44 µM |
